From ChEMBL document CHEMBL1201862, “PubChem BioAssay data set” (2004)
The source made the active and inactive calls.

Assays:
[1] = biological target: T1, Microphthalmia-associated transcription factor (Homo sapiens, UniProt O75030); assay: TRPM1 promoter luciferase signal decrease, dose response, MITF inhibitor project, cell-based, SK-MEL-5, cherry-picked, set 3 (AID 493073); format: functional
T1 sequence (O75030 whole entry): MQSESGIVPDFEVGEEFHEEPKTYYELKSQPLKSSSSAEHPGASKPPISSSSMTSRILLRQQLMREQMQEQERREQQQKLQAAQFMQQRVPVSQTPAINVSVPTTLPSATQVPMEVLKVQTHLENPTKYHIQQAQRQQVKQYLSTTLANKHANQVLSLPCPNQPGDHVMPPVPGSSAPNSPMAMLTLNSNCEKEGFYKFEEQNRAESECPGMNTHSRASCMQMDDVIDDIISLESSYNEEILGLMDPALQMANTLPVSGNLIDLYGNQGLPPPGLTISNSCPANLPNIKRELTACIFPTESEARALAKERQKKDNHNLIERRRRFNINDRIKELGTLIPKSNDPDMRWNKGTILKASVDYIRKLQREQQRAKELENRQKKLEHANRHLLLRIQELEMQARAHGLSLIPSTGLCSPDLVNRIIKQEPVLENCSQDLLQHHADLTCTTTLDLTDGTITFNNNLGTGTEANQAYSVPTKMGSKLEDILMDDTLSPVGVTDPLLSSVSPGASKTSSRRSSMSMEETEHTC

[2] = biological target: T2, DNA dC->dU-editing enzyme APOBEC-3G (Homo sapiens, UniProt Q9HC16); format: functional
[3] = biological target: T2, DNA dC->dU-editing enzyme APOBEC-3G; assay: APOBEC3G deaminase inhibitors, SAR follow-up, biochemical, fluorescence, single-stranded DNA substrate (AID 602136); format: functional; conditions: read-out: IC50_Mean
[4] = biological target: T3, DNA dC->dU-editing enzyme APOBEC-3A (Homo sapiens, UniProt P31941); assay: SAR analysis of small molecule inhibitors of APOBEC3A DNA Deaminase via a fluorescence-based single-stranded DNA deaminase assay - Set 2.; format: functional; conditions: read-out: IC50_Mean
[5] = biological target: T4, Alkaline phosphatase, tissue-nonspecific isozyme (Homo sapiens, UniProt P05186); assay: TNAP enzyme inhibition by screening hits, dose response, selectivity assay for mouse IAP inhibitor project, biochemical, human TNAP, uHTS hits (AID 488906); format: functional
T4 sequence (P05186 whole entry): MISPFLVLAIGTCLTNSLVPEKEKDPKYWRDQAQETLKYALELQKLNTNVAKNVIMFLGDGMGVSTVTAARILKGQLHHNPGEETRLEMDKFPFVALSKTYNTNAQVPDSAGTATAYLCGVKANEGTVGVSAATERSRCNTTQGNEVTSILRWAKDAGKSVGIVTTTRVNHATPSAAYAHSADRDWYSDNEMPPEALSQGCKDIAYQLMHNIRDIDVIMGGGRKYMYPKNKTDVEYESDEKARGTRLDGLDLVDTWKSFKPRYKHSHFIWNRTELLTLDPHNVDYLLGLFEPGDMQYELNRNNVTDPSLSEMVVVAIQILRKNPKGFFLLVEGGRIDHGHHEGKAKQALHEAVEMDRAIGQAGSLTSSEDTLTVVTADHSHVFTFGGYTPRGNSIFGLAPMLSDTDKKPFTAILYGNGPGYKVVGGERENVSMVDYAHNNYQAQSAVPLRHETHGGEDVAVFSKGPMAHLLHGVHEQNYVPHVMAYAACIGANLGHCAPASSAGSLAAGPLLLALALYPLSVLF

[6] = biological target: T3, DNA dC->dU-editing enzyme APOBEC-3A; assay: Dose Response confirmation of small molecule APOBEC3A DNA Deaminase Inhibitors via a fluorescence-based single-stranded DNA deaminase assay. [Related pubchem assays (depositor defined):AID493011, AID493024]; format: functional
[7] = biological target: Intestinal-type alkaline phosphatase (Homo sapiens, UniProt P09923); assay: inhibition of human intestinal alkaline phosphatase – biochemical, dose response (AID 488876); format: functional
[8] = biological target: Intestinal-type alkaline phosphatase (Mus musculus, UniProt P24822); assay: PubChem AID 488785; format: functional
[9] = biological target: T2, DNA dC->dU-editing enzyme APOBEC-3G; assay: SAR analysis of small molecule inhibitors of APOBEC3G DNA Deaminase via a fluorescence-based single-stranded DNA deaminase assay - Set 2.; format: functional; conditions: read-out: IC50_Mean
[10] = biological target: T3, DNA dC->dU-editing enzyme APOBEC-3A; assay: SAR analysis of small molecule inhibitors of APOBEC3A DNA Deaminase via a fluorescence-based single-stranded DNA deaminase assay.; format: functional; conditions: read-out: IC50_Mean
[11] = control 3'UTR Renilla luciferase suppression, dose response, counter-screen for Shn3 inhibitor project, cell-based, Clone20-Shn3RL, cherry-picked (AID 624133); format: functional
[12] = biological target: T5, Protein RecA (Mycobacterium tuberculosis, UniProt P9WHJ3); assay: Fluorescence Cell-Free Homogeneous Dose Retest to Identify Inhibitors of RecA-Intein Splicing Activity. [Related pubchem assays (depositor defined):AID2097, AID2223, AID489010, AID492950]; format: functional
T5 sequence (P9WHJ3 whole entry): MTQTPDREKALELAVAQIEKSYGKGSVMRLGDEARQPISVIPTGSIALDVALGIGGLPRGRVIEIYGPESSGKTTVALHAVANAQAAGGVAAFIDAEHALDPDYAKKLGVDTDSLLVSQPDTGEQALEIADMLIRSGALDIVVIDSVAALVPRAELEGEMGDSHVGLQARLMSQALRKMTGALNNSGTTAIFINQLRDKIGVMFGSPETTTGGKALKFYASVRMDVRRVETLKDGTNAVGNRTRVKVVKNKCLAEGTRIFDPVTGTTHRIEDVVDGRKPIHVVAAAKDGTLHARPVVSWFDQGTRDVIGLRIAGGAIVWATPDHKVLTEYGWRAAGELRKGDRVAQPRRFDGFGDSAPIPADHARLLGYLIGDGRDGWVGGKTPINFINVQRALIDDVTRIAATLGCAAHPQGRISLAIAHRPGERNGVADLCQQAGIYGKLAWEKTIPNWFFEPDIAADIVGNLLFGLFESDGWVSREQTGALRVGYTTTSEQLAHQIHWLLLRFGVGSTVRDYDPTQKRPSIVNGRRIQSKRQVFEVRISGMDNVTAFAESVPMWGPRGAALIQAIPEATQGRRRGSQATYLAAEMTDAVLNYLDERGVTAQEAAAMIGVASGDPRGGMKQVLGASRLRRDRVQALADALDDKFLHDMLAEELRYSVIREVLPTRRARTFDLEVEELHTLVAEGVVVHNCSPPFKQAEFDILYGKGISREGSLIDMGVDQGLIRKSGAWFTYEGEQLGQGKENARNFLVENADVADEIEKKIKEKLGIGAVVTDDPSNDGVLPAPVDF

[13] = system: HEK293; assay: cells; conditions: Homo sapiens
[14] = growth suppression of beta-catenin-knockout colon cells, dose response, cell-based, HCT116, human colon tumor (AID 1045); format: functional;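 further: HCT116 colon tumor cells with beta catenin knocked out; cells exposed to compound for 60 hours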
[15] = biological target: Heat shock protein HSP 90-alpha (Homo sapiens, UniProt P07900); format: functional, organism-based
[16] = growth suppression of PTEN-null colon cells, dose response, cell-based, HCT116 PTEN knockout (AID 1047); format: functional;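 further: HCT116 colon tumor cells with PTEN knocked out; cells exposed to compound for 60 hours before readout; potency for loss of cell viability measured by luminescence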
[17] = C. albicans growth with fluconazole, confirmation, fluorescence, retest (AID 2467); format: functional, cell-based
[18] = Shn3 3'UTR reporter inhibitors, dose response, cell-based, Clone20 osteoblasts, firefly luciferase, cherry-picked (AID 624132); format: functional;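 further: firefly luciferase luminescence from reporter carrying the Shn3 3'UTR in osteoblasts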
[19] = system: HEK293; assay: cells; conditions: Homo sapiens; remark: listed apart in the source
[20] = biological target: Melanocortin receptor 4 (Homo sapiens, UniProt P32245); assay: MC4R antagonist potency on cAMP, dose response, cell-based, TR-FRET, biased antagonists (AID 602298); format: functional;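 further: antagonist potency against agonist-stimulated cAMP production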
[21] = nonselective inhibitors of cellular cAMP signaling, dose response, counter-screen for MC4R biased antagonist project, cell-based, TR-FRET cAMP detection (AID 602305); format: functional;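 further: U2OS cells stimulated with forskolin near its EC80 as the cAMP inducer; potency is for inhibition of forskolin-stimulated cAMP signaling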
[22] = biological target: T6, Replicative DNA helicase DnaB (Mycobacterium tuberculosis, UniProt P9WMR3); assay: DnaB intein splicing inhibitors, dose response, biochemical, cell-free fluorescence (AID 449749); format: functional
T6 sequence (P9WMR3 whole entry): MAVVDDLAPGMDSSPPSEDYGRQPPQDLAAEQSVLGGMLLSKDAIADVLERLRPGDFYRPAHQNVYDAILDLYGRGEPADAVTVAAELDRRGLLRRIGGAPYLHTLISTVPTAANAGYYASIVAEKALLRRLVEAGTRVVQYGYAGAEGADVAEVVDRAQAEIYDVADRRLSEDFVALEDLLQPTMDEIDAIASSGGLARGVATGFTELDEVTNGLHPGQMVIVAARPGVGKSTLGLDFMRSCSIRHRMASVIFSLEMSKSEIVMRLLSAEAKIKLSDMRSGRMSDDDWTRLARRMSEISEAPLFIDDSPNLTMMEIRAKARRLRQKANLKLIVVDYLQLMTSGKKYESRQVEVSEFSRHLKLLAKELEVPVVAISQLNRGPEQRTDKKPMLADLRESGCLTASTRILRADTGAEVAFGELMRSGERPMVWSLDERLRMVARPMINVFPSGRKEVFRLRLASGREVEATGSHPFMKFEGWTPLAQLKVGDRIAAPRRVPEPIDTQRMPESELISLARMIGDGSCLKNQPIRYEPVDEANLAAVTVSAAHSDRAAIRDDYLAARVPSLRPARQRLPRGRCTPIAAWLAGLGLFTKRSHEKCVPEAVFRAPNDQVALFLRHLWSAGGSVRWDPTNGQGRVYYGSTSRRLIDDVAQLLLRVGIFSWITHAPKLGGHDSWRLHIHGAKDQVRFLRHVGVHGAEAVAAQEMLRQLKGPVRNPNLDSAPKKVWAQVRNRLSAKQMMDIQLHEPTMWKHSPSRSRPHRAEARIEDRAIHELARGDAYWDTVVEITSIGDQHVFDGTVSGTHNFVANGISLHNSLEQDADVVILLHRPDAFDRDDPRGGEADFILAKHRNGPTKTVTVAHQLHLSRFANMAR

[23] = NIH-3T3 fibroblast cytotoxicity, dose response, cytotoxicity control, cell-based, fluorescence, Alamar Blue, secondary assay (AID 2327); format: functional;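 further: NIH-3T3 mouse fibroblasts cultured with fluconazole at 8 µg/mL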
[24] = biological target: T7, High affinity choline transporter 1 (Homo sapiens, UniProt Q9GZV3); assay: CHT inhibitors, dose response, cell-based, 10-point CRC, membrane potential dye (AID 588401); format: functional;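 further: membrane potential dye fluorescence of choline-evoked depolarization via CHT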
T7 sequence (Q9GZV3 whole entry): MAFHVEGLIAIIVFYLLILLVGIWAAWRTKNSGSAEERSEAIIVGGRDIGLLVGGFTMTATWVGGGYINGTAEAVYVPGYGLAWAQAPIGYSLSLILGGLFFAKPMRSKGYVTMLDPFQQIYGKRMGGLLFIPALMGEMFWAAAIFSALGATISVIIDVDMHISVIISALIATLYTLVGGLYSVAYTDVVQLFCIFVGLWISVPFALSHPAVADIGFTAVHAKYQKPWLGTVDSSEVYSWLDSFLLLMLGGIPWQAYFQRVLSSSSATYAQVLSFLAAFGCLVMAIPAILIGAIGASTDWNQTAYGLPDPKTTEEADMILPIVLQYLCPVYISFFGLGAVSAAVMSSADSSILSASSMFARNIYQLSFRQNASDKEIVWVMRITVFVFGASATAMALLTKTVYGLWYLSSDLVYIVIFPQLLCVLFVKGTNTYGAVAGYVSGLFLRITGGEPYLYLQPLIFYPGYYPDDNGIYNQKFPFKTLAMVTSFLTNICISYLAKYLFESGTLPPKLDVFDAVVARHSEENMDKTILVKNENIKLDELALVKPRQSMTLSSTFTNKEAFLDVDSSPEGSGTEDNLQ

[25] = biological target: T7, High affinity choline transporter 1; assay: CHT inhibitors, dose response, cell-based, 5-point CRC, membrane potential dye (AID 504840); format: functional

T2 sequence (Q9HC16 whole entry): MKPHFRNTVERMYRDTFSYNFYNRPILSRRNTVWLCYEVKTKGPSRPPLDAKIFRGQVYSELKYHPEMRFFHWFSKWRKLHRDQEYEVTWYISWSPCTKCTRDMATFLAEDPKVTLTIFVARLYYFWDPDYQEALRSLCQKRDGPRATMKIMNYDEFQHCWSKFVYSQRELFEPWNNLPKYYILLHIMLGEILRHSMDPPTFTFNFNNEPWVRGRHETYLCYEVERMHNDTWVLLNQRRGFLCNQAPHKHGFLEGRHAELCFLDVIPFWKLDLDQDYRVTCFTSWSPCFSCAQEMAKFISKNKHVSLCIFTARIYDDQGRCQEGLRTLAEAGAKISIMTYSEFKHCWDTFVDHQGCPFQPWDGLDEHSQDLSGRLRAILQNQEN
T3 sequence (P31941 whole entry): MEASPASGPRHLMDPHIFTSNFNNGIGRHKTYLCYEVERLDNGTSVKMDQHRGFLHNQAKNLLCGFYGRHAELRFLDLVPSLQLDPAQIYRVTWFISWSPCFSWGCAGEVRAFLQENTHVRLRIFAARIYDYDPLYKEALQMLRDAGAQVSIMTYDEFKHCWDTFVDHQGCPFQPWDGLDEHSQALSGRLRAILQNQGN
Intestinal-type alkaline phosphatase (Mus musculus, UniProt P24822), sequence (P24822 whole entry): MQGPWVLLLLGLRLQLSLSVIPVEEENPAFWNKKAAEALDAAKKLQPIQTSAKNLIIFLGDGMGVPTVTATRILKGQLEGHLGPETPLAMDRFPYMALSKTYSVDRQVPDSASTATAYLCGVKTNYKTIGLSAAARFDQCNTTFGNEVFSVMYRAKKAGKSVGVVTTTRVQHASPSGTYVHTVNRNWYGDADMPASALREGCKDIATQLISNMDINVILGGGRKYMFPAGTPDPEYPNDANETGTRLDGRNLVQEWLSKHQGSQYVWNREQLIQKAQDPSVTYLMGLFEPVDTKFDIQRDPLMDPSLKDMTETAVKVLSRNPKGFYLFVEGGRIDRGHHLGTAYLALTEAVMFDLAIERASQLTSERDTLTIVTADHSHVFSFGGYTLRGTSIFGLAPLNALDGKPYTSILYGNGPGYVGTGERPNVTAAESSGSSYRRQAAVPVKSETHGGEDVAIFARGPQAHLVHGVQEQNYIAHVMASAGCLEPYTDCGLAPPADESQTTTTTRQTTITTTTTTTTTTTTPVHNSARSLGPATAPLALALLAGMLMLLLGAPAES
Intestinal-type alkaline phosphatase (Homo sapiens, UniProt P09923), sequence (P09923 whole entry): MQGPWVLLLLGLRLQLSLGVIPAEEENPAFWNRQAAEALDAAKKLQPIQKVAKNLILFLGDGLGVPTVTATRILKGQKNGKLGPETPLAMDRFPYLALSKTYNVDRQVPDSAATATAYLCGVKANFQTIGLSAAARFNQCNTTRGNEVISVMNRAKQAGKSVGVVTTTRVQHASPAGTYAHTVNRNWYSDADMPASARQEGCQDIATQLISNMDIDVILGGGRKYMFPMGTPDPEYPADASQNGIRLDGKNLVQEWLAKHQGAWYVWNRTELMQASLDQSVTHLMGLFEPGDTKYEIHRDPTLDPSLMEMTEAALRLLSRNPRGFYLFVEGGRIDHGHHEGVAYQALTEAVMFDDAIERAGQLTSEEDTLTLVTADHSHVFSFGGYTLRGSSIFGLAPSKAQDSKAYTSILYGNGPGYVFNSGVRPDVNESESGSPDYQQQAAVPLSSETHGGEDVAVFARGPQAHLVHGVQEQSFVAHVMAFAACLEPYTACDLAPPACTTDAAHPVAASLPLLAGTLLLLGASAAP
Melanocortin receptor 4, sequence (P32245 whole entry): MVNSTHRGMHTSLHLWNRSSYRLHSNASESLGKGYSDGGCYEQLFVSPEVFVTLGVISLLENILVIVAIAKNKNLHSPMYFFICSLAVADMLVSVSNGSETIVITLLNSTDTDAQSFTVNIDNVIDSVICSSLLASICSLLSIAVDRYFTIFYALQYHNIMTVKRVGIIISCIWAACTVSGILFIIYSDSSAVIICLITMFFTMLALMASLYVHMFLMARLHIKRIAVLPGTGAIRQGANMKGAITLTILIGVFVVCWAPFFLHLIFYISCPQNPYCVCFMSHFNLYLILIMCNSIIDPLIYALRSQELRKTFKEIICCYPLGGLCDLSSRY

Which results are given for `Cn1nc([N+](=O)[O-])nc1S(C)(=O)=O`?
AC50 [1]: 9.2 µM (active); IC50 [2]: 65.5 µM (active); IC50 [3]: 27.2 µM (inactive); IC50 [4]: 13.1 µM (inactive); IC50 [5]: 74.1 µM (active); IC50 [6]: 4.14 µM (active); IC50 [7]: > 100 µM (inactive); IC50 [8]: 5.66 µM (active); IC50 [9]: 24.1 µM (inactive); IC50 [10]: 14.4 µM (inactive)

Which AC50 [11] does the source give for `O=[N+]([O-])c1cc(S(=O)(=O)C(F)(F)F)ccc1Sc1nc2ccccc2s1` here?
Its AC50 is 15.4 µM (active).

What about the EC50 [12] of the same compound?
Its EC50 is 0.249 µM (active).

And the EC50 [13]?
The EC50 was > 59.6 µM (inactive).

What about the EC50 [14] of the same compound?
The EC50 was 7.45 µM (active).

What about the AC50 [15] of the same compound?
The AC50 was 1.75 µM (active).

And the EC50 [16]?
Its EC50 is 8.04 µM (active).

And the EC50 [17]?
The EC50 was > 38 µM (not active).

What about the AC50 [18] of the same compound?
Its AC50 is 2.45 µM (active).

What about the EC50 [19] of the same compound?
Its EC50 is > 59.6 µM (inactive).

And the IC50 [20]?
Its IC50 is > 2.39 µM (active).

And the IC50 [21]?
Its IC50 is > 64.6 µM (inactive).

And the AC50 [22]?
The AC50 was 1.75 µM (active).

And the EC50 [23]?
Its EC50 is 5 µM (active).

Which IC50 [24] does the source give for `CC1CCCCC1NC(=O)C1CCCN(S(=O)(=O)c2ccc(-n3cnnn3)cc2)C1` (stereo not given) here?
Its IC50 is 3.98 µM (active).

What about the IC50 [25] of the same compound?
Its IC50 is 5.75 µM (active).
